Test results taken from the supplement of paper PMC11628255, “Interference of metal ions on the bioluminescent signal of firefly, Renilla, and NanoLuc luciferases in high-throughput screening assays” (Frontiers in Chemistry, 2024).
± gives the standard deviation of the averaged measurements.

Experiments:
Assay in all cases: normalised percent inhibition of luminescence (vs positive and negative controls); higher = stronger inhibition
[1] = tested on: NanoLuc luciferase (NLuc)
Experimental: (§1)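 Concentration-response (>=11 concentrations) of metal salts on purified FLuc, NLuc or RLuc luminescence in screening (SC) or 100 mM HEPES (H) buffer; salt pre-incubated with enzyme 10 min at RT, read 10 min after substrate. Normalised percent inhibition vs plate positive (PTC-124, isradipine, BTS) and DMSO negative controls; triplicate wells.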

[2] = tested on: Renilla luciferase (RLuc)
Experimental: as §1

[3] = tested on: firefly luciferase (FLuc)
Experimental: as §1

O=[N+]([O-])[O-].O=[N+]([O-])[O-].[Cu+2] [copper(II) nitrate]
normalised percent inhibition [%]
Conditions | [1] | [2] | [3]
metal salt concentration 0.0001 mM, 100 mM HEPES buffer | -0.372 ± 3 | -51.9 ± 23 | 87.3 ± 0.68
metal salt concentration 0.00025 mM, 100 mM HEPES buffer | -0.297 ± 4.1 | -48.5 ± 24 | 98.97 ± 0.94
metal salt concentration 0.0005 mM, 100 mM HEPES buffer | 1.75 ± 3.8 | -45.4 ± 25 | 100.2 ± 0.86
metal salt concentration 0.001 mM, 100 mM HEPES buffer | 0.0805 ± 1.8 | -40 ± 21 | 100.5 ± 0.32
metal salt concentration 0.002 mM, screening conditions buffer | 14.1 ± 1.5 | -3.55 ± 2.2 | –
metal salt concentration 0.005 mM, screening conditions buffer | 18.8 ± 0.91 | -13.6 ± 6.9 | –
metal salt concentration 0.01 mM, 100 mM HEPES buffer | 7.71 ± 5.1 | 62.8 ± 10 | –
metal salt concentration 0.01 mM, screening conditions buffer | 65.1 ± 8.6 | -1.01 ± 9.8 | –
metal salt concentration 0.02 mM, screening conditions buffer | 133 ± 1.4 | -23.7 ± 5.4 | –
metal salt concentration 0.025 mM, 100 mM HEPES buffer | 59.8 ± 10 | 105 ± 1.8 | 100.3 ± 0.68
metal salt concentration 0.05 mM, 100 mM HEPES buffer | 95.4 ± 2.7 | 106 ± 1.2 | 100.6 ± 0.19
metal salt concentration 0.05 mM, screening conditions buffer | 135.6 ± 0.57 | -13 ± 2.6 | –
metal salt concentration 0.1 mM, 100 mM HEPES buffer | 99.6 ± 1.4 | 106.6 ± 0.68 | 100.5 ± 0.56
metal salt concentration 0.1 mM, screening conditions buffer | 136.5 ± 0.29 | -8.47 ± 7.3 | –
metal salt concentration 0.2 mM, screening conditions buffer | 136.6 ± 0.2 | 105.7 ± 0.96 | –
metal salt concentration 0.5 mM, 100 mM HEPES buffer | 101.5 ± 0.56 | 105 ± 2.1 | 100.5 ± 0.32
metal salt concentration 0.5 mM, screening conditions buffer | 137.2 ± 0.16 | 107 | –
metal salt concentration 1 mM, 100 mM HEPES buffer | 101.9 ± 0.15 | – | 100.4 ± 0.75
metal salt concentration 1 mM, screening conditions buffer | 137.4 ± 0.17 | 105.8 ± 0.24 | –
metal salt concentration 2.5 mM, 100 mM HEPES buffer | 101 ± 2.5 | – | 100.4 ± 0.37
metal salt concentration 2.5 mM, screening conditions buffer | 137.3 ± 0.23 | 105.7 ± 0.6 | –
metal salt concentration 5 mM, 100 mM HEPES buffer | 102.11 ± 0.092 | – | 99.95 ± 0.94
metal salt concentration 5 mM, screening conditions buffer | 137.49 ± 0.063 | 106.3 ± 0.24 | –

O=[N+]([O-])[O-].O=[N+]([O-])[O-].[Cd+2] [cadmium nitrate]
normalised percent inhibition [%]
Conditions | [1] | [2] | [3]
metal salt concentration 0.0001 mM, 100 mM HEPES buffer | -0.809 ± 1.5 | -40.7 ± 15 | -14 ± 17
metal salt concentration 0.00025 mM, 100 mM HEPES buffer | -0.623 ± 3.6 | -15.8 ± 19 | -6.16 ± 21
metal salt concentration 0.0005 mM, 100 mM HEPES buffer | -3.63 ± 3.5 | -51.3 ± 24 | 6.48 ± 9.1
metal salt concentration 0.001 mM, 100 mM HEPES buffer | -0.485 ± 1.9 | -29.6 ± 6 | 33.8 ± 4.1
metal salt concentration 0.002 mM, screening conditions buffer | 4.83 ± 4.2 | -8.95 ± 8.6 | –
metal salt concentration 0.005 mM, screening conditions buffer | 6.73 ± 6 | -5.21 ± 8.8 | –
metal salt concentration 0.01 mM, screening conditions buffer | 0.612 ± 1.6 | -13.5 ± 18 | –
metal salt concentration 0.02 mM, screening conditions buffer | -0.781 ± 5.1 | -3.71 ± 6.7 | –
metal salt concentration 0.025 mM, 100 mM HEPES buffer | -1.09 ± 2.9 | -16 ± 26 | 95.9 ± 3.9
metal salt concentration 0.05 mM, 100 mM HEPES buffer | 4.79 ± 3.8 | -20.9 ± 10 | 99.08 ± 0.82
metal salt concentration 0.05 mM, screening conditions buffer | 17.7 ± 10 | -1.96 ± 5.9 | –
metal salt concentration 0.1 mM, 100 mM HEPES buffer | 13 ± 6.7 | 18 ± 7.5 | 99.41 ± 0.19
metal salt concentration 0.1 mM, screening conditions buffer | 7.22 ± 2.6 | -1.09 ± 6.9 | –
metal salt concentration 0.2 mM, screening conditions buffer | 20.6 ± 6.8 | -5.06 ± 7.3 | –
metal salt concentration 0.5 mM, 100 mM HEPES buffer | 18.6 ± 2.3 | 47.1 ± 20 | 100.3 ± 0.68
metal salt concentration 0.5 mM, screening conditions buffer | 30.7 ± 4.9 | 39.6 ± 6.7 | –
metal salt concentration 1 mM, 100 mM HEPES buffer | 24.8 ± 3 | 95.1 ± 2.6 | 100.3 ± 0.49
metal salt concentration 1 mM, screening conditions buffer | 56.2 ± 9.1 | 68.6 ± 12 | –
metal salt concentration 2.5 mM, 100 mM HEPES buffer | 20.6 ± 2.7 | 104 ± 1.3 | 100.3 ± 0.68
metal salt concentration 2.5 mM, screening conditions buffer | 93.1 ± 3 | 79.4 ± 4.4 | –
metal salt concentration 5 mM, 100 mM HEPES buffer | 26.5 ± 5.5 | 105 ± 2.7 | 99.3 ± 0.68
metal salt concentration 5 mM, screening conditions buffer | 113 ± 4.1 | 93.4 ± 2.4 | –

[Cl][Fe]([Cl])[Cl] [iron(III) chloride]
normalised percent inhibition [%]
Conditions | [1] | [2] | [3]
metal salt concentration 0.0001 mM, 100 mM HEPES buffer | -1.25 ± 4.4 | -21.7 ± 4.9 | -26 ± 15
metal salt concentration 0.00025 mM, 100 mM HEPES buffer | -4.27 ± 8.5 | -24.6 ± 22 | -29.2 ± 20
metal salt concentration 0.0005 mM, 100 mM HEPES buffer | -1.65 ± 4.2 | -24.2 ± 25 | -34.9 ± 20
metal salt concentration 0.001 mM, 100 mM HEPES buffer | -0.138 ± 3.3 | -15.5 ± 20 | -41.7 ± 17
metal salt concentration 0.002 mM, screening conditions buffer | 0.19 ± 3.9 | 0.819 ± 2.5 | 14.7 ± 1.8
metal salt concentration 0.005 mM, screening conditions buffer | 4.14 ± 6.8 | -4.9 ± 5 | 55.7 ± 4.7
metal salt concentration 0.01 mM, screening conditions buffer | 8.93 ± 3 | -11.6 ± 8.6 | 85.4 ± 3.2
metal salt concentration 0.02 mM, screening conditions buffer | 14.5 ± 4.1 | 0.263 ± 14 | 95.8 ± 6.3
metal salt concentration 0.025 mM, 100 mM HEPES buffer | 5.06 ± 5.1 | -1.73 ± 19 | 99.41 ± 0.94
metal salt concentration 0.05 mM, 100 mM HEPES buffer | 15 ± 1.8 | 36.7 ± 12 | 99.62 ± 0.49
metal salt concentration 0.05 mM, screening conditions buffer | -3.71 ± 1.9 | -5.21 ± 2 | 82.4 ± 4.2
metal salt concentration 0.1 mM, 100 mM HEPES buffer | 35.6 ± 2.7 | 61.1 ± 4.2 | 100.6 ± 0.19
metal salt concentration 0.1 mM, screening conditions buffer | 28.5 ± 5.2 | 23.9 ± 8.6 | 71.9 ± 8.1
metal salt concentration 0.2 mM, screening conditions buffer | 31.9 ± 1.6 | 32.6 ± 8.1 | 95.4 ± 4.9
metal salt concentration 0.5 mM, 100 mM HEPES buffer | 99.75 ± 0.79 | 103 ± 1.9 | 100.3 ± 0.49
metal salt concentration 0.5 mM, screening conditions buffer | 52.9 ± 0.99 | 48.5 ± 1.6 | 100.2 ± 0.3
metal salt concentration 1 mM, 100 mM HEPES buffer | 101.4 ± 0.23 | 103 ± 2.3 | 99.6 ± 1.3
metal salt concentration 1 mM, screening conditions buffer | 89.6 ± 7.1 | 75.5 ± 7.8 | 100.6 ± 0.43
metal salt concentration 2.5 mM, 100 mM HEPES buffer | 101.8 ± 0.23 | 105.7 ± 0.74 | 100.2 ± 0.32
metal salt concentration 2.5 mM, screening conditions buffer | 137.4 ± 0.29 | 94.4 ± 4.9 | 100.6 ± 0.38
metal salt concentration 5 mM, 100 mM HEPES buffer | 102.12 ± 0.051 | 106.2 ± 0.43 | 99.84 ± 0.32
metal salt concentration 5 mM, screening conditions buffer | 137.49 ± 0.063 | 105 ± 1.1 | 100.5 ± 0.3
